Test results from ChEMBL document CHEMBL1201862, “PubChem BioAssay data set” (2004).
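Cells were grown in 96-well plates and exposed to each compound for 48 hours at five concentrations; endpoints were interpolated linearly between bracketing concentrations, or set to the highest concentration if not reached. Here, GI50 denotes the concentration required for 50% inhibition of growth.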 Active and inactive are the calls of the source. No stated cut-off is given here; in the data, active = GI50 up to about 1.1 µM and inactive = higher.

What was measured:
Assay in all cases: NCI-60 cell line screen, 48 h
HT-29 = test system: HT-29
EKVX = test system: EKVX
OVCAR-5 = test system: OVCAR-5
786-0 = test system: 786-0
Malme-3M = test system: Malme-3M
M14 = test system: M14
T47D = test system: T47D
NCI/ADR-RES = test system: NCI/ADR-RES
Hs-578T = test system: Hs-578T
RPMI-8226 = test system: RPMI-8226
DU-145 = test system: DU-145
IGROV-1 = test system: IGROV-1
SNB-75 = test system: SNB-75
SF-268 = test system: SF-268
K562 = test system: K562
SNB-19 = test system: SNB-19
A498 = test system: A498
SK-OV-3 = test system: SK-OV-3
HCT-15 = test system: HCT-15

| Structure (SMILES) | GI50 (HT-29) | GI50 (EKVX) | GI50 (OVCAR-5) | GI50 (786-0) | GI50 (Malme-3M) | GI50 (M14) | GI50 (T47D) | GI50 (NCI/ADR-RES) | GI50 (Hs-578T) | GI50 (RPMI-8226) | GI50 (DU-145) | GI50 (IGROV-1) | GI50 (SNB-75) | GI50 (SF-268) | GI50 (K562) | GI50 (SNB-19) | GI50 (A498) | GI50 (SK-OV-3) | GI50 (HCT-15) [µM] |
| --- | --- | --- | --- | --- | --- | --- | --- | --- | --- | --- | --- | --- | --- | --- | --- | --- | --- | --- | --- |
| Cc1cc(NS(=O)(=O)c2ccc(NC(=O)c3ccc4nc5ccccc5c(Nc5ccc(S(N)(=O)=O)cc5)c4c3)cc2)no1 | 28.6 µM (inactive) | 24.7 µM (inactive) | 27 µM (inactive) | 17.1 µM (inactive) | 21.5 µM (inactive) | 30 µM (inactive) | 24.2 µM (inactive) | 31.8 µM (inactive) | 31.9 µM (inactive) | 24.7 µM (inactive) | 48.3 µM (inactive) | 33.4 µM (inactive) | 38.2 µM (inactive) | 30.5 µM (inactive) | 19.8 µM (inactive) | 58.2 µM (inactive) | 55.5 µM (inactive) | > 100 µM (inactive) | 19.2 |
| NS(=O)(=O)c1nnc(NS(=O)(=O)c2ccccc2[N+](=O)[O-])s1 | > 100 µM (inactive) | > 100 µM (inactive) | > 100 µM (inactive) | > 100 µM (inactive) | > 100 µM (inactive) | > 100 µM (inactive) | > 100 µM (inactive) | > 100 µM (inactive) | > 100 µM (inactive) | > 100 µM (inactive) | > 100 µM (inactive) | > 100 µM (inactive) | > 100 µM (inactive) | > 100 µM (inactive) | > 100 µM (inactive) | > 100 µM (inactive) | > 100 µM (inactive) | > 100 µM (inactive) | > 100 |
| CSc1c(C#N)c2n(c3ccccc3[n+]2C)c2ncccc12 | 26.7 µM (inactive) | 21.7 µM (inactive) | 23.2 µM (inactive) | 17.7 µM (inactive) | 19.4 µM (inactive) | 21.2 µM (inactive) | 25.8 µM (inactive) | 28.4 µM (inactive) | 36.7 µM (inactive) | 25.4 µM (inactive) | 13.9 µM (inactive) | 24.7 µM (inactive) | 17.3 µM (inactive) | 29.4 µM (inactive) | 37.9 µM (inactive) | 32.6 µM (inactive) | 25.8 µM (inactive) | 36.1 µM (inactive) | 21.5 |
| CC(=O)c1ccc2c(c1)CC1(C2)Cc2ccccc2C1=O (stereo not drawn) | 14.6 µM (inactive) | 24.2 µM (inactive) | > 100 µM (inactive) | 77.8 µM (inactive) | 28.4 µM (inactive) | 31 µM (inactive) | 25.6 µM (inactive) | 16 µM (inactive) | 39.8 µM (inactive) | 33.6 µM (inactive) | > 100 µM (inactive) | 79.1 µM (inactive) | 34.5 µM (inactive) | 74 µM (inactive) | 36.1 µM (inactive) | > 100 µM (inactive) | > 100 µM (inactive) | > 100 µM (inactive) | 51.5 |
| c1cc(-c2ncc(-c3ccc4c(c3)CCCO4)o2)ccn1 | 7.4 µM (inactive) | 18.6 µM (inactive) | 42.2 µM (inactive) | 26.6 µM (inactive) | 10.4 µM (inactive) | 21.6 µM (inactive) | 12.5 µM (inactive) | 3.94 µM (inactive) | 17.4 µM (inactive) | 8.47 µM (inactive) | 12 µM (inactive) | 15.6 µM (inactive) | 2.08 µM (inactive) | 19.3 µM (inactive) | 1.85 µM (inactive) | 8.79 µM (inactive) | 10.6 µM (inactive) | 15.6 µM (inactive) | 6.24 |
| COc1ccc2o/c(=N\c3ccc(F)cc3)c(C(N)=O)cc2c1 | > 100 µM (inactive) | > 100 µM (inactive) | > 100 µM (inactive) | 10.5 µM (inactive) | 47.1 µM (inactive) | > 100 µM (inactive) | 19.4 µM (inactive) | 30.2 µM (inactive) | 62.1 µM (inactive) | > 100 µM (inactive) | > 100 µM (inactive) | 79.3 µM (inactive) | 12.6 µM (inactive) | 43 µM (inactive) | > 100 µM (inactive) | 38.5 µM (inactive) | 20 µM (inactive) | 17 µM (inactive) | > 100 |
| COC(=O)C1(C)CCCC2(C)C3CCC4CC3(C=C4CO)CCC12 (stereo not drawn) | 16.2 µM (inactive) | 41.2 µM (inactive) | > 100 µM (inactive) | 43.4 µM (inactive) | 27 µM (inactive) | 93.8 µM (inactive) | 34.4 µM (inactive) | 24.4 µM (inactive) | > 100 µM (inactive) | 24.9 µM (inactive) | > 100 µM (inactive) | > 100 µM (inactive) | 37.2 µM (inactive) | 37.8 µM (inactive) | – | 28.2 µM (inactive) | 87.9 µM (inactive) | > 100 µM (inactive) | 17.4 |
| CNC(=O)N(C1=NCC(C)S1)c1ccc(C)c(C)c1 (stereo not drawn) | 2.52 µM (inactive) | 6.55 µM (inactive) | 15.6 µM (inactive) | 4.74 µM (inactive) | 4.15 µM (inactive) | 1.13 µM (inactive) | 7.33 µM (inactive) | 3.36 µM (inactive) | 4.31 µM (inactive) | 2.81 µM (inactive) | 7.5 µM (inactive) | 8.89 µM (inactive) | 1.31 µM (inactive) | 4.37 µM (inactive) | 0.923 µM (active) | 6.64 µM (inactive) | 2.99 µM (inactive) | 4.28 µM (inactive) | 2.77 |
| Nc1nc(Cl)cc(NCCC2(CO)CCC2)n1 | > 100 µM (inactive) | 4.73 µM (inactive) | > 100 µM (inactive) | > 100 µM (inactive) | > 100 µM (inactive) | > 100 µM (inactive) | > 100 µM (inactive) | > 100 µM (inactive) | 45.4 µM (inactive) | > 100 µM (inactive) | > 100 µM (inactive) | > 100 µM (inactive) | > 100 µM (inactive) | > 100 µM (inactive) | > 100 µM (inactive) | > 100 µM (inactive) | > 100 µM (inactive) | > 100 µM (inactive) | > 100 |
| O=C1C2CC[C@@H]3C(=O)C(Cl)(Cl)[C@@H]3CCC2C1(Cl)Cl (stereo partly drawn) | > 100 µM (inactive) | > 100 µM (inactive) | > 100 µM (inactive) | > 100 µM (inactive) | > 100 µM (inactive) | > 100 µM (inactive) | > 100 µM (inactive) | > 100 µM (inactive) | > 100 µM (inactive) | 32.4 µM (inactive) | > 100 µM (inactive) | > 100 µM (inactive) | > 100 µM (inactive) | > 100 µM (inactive) | 44.8 µM (inactive) | > 100 µM (inactive) | > 100 µM (inactive) | > 100 µM (inactive) | 98.6 |
| O=[N+]([O-])C(/C(Cl)=C(\Cl)Br)=C(/Cl)SCc1ccccc1 | 2.12 µM (inactive) | 6.67 µM (inactive) | 12.5 µM (inactive) | 2.08 µM (inactive) | 6.31 µM (inactive) | 2.77 µM (inactive) | 3.68 µM (inactive) | 2.77 µM (inactive) | 5.11 µM (inactive) | 1.72 µM (inactive) | 13 µM (inactive) | 5.9 µM (inactive) | 3.26 µM (inactive) | 2.85 µM (inactive) | 1.27 µM (inactive) | 17.8 µM (inactive) | 8.04 µM (inactive) | 19.6 µM (inactive) | 2.9 |
| CC1=CCC[C@]2(C)C1=CC(=O)O[C@H]2c1ccoc1 | > 100 µM (inactive) | > 100 µM (inactive) | > 100 µM (inactive) | > 100 µM (inactive) | > 100 µM (inactive) | – | > 100 µM (inactive) | > 100 µM (inactive) | > 100 µM (inactive) | > 100 µM (inactive) | > 100 µM (inactive) | > 100 µM (inactive) | > 100 µM (inactive) | > 100 µM (inactive) | > 100 µM (inactive) | 23.6 µM (inactive) | > 100 µM (inactive) | > 100 µM (inactive) | > 100 |
| Nc1nn2c(C(Br)Br)cc(C(Br)Br)nc2c1[N+](=O)[O-] | 0.766 µM (active) | 2.37 µM (inactive) | 1.72 µM (inactive) | 0.336 µM (active) | 0.738 µM (active) | 0.627 µM (active) | 0.667 µM (active) | 2.78 µM (inactive) | 2.36 µM (inactive) | 0.239 µM (active) | 1.68 µM (inactive) | 1.21 µM (inactive) | 1.08 µM (active) | 1.88 µM (inactive) | 0.248 µM (active) | 1.61 µM (inactive) | 2.18 µM (inactive) | 3.43 µM (inactive) | 1.07 |
| Nc1ccc2c(=O)cc(-c3ccc(Br)s3)[nH]c2n1 | 4.74 µM (inactive) | 7.59 µM (inactive) | 11.6 µM (inactive) | 4.02 µM (inactive) | 12.4 µM (inactive) | 3.12 µM (inactive) | 4.16 µM (inactive) | 2.6 µM (inactive) | 2.36 µM (inactive) | 1.89 µM (inactive) | 3.93 µM (inactive) | 3.85 µM (inactive) | 2.47 µM (inactive) | 6.22 µM (inactive) | 0.522 µM (active) | 4.63 µM (inactive) | 3.21 µM (inactive) | 3.94 µM (inactive) | 2.26 |
| CCc1nc(N)nc(N)c1-c1ccc(NCCN)c([N+](=O)[O-])c1 | 6.11 µM (inactive) | 29 µM (inactive) | 33.9 µM (inactive) | 7.03 µM (inactive) | 13.7 µM (inactive) | 8.63 µM (inactive) | 33.6 µM (inactive) | > 100 µM (inactive) | 89.1 µM (inactive) | 29.6 µM (inactive) | 20.5 µM (inactive) | 8.97 µM (inactive) | 19.7 µM (inactive) | 7.1 µM (inactive) | 1.09 µM (active) | 24.7 µM (inactive) | 17.7 µM (inactive) | 82.8 µM (inactive) | 37 |
